Experiments:
HIV-IIIb = experiment: Test A: Antiviral Assay in MT4 Cells; format: cell-based, HIV-1; settings: Human immunodeficiency virus 1, IIIB, MT4, 120 h, read-out: % inhibition at 3 μM
Experimental: Test A: Antiviral Assay in MT4 Cells
For the antiviral assay, 40 μL of 1× test concentration of 3-fold serially diluted compound in culture medium with 10% FBS was added to each well of a 384-well plate (10 concentrations) in quadruplicate. MT-4 cells were next mixed with HIV-IIIb at an m.o.i of 0.003 for 1 hour, after which time 35 μL of virus/cell mixture (2000 cells) was immediately added to each well containing 40 μL of diluted compound. The plates were then incubated at 37° C. for 5 days. After 5 days of incubation, 25 μl of 2× concentrated CellTiter-Glo™ Reagent (catalog #G7571, Promega Biosciences, Inc., Madison, Wis.) was added to each well containing MT-4 cells. Cell lysis was carried out by incubating at room temperature for 10 min and then chemiluminescence was read.

[1] = Test B: Cytotoxicity Assay (protocol of Test A, uninfected cells); format: cell-based; settings: human, uninfected MT-4 cells, CellTiter-Glo
Experimental: (§1) Test B: Cytotoxicity Assay Compound cytotoxicity and the corresponding CC50 values was determined using the same protocol as described in the antiviral assay (Test A) except that uninfected cells were used.

MT-4 cells = experiment: as above; format: cell-based; settings: uninfected MT-4 cells, 5 days, CellTiter-Glo
Experimental: as §1

Compound | inhibition at 3 µM (HIV-IIIb) [%] | CC50 at 5 days [1] [µM] | CC50 (MT-4 cells) [µM]
CN(C)c1cnc([C@H](Cc2cc(F)cc(F)c2)NC(=O)Cn2nc(C(F)F)c3c2C(F)(F)[C@@H]2C[C@H]32)c(-c2ccc(Cl)c3c(NS(C)(=O)=O)nn(C)c23)c1 [Compound 50, N—((S)-1-(3-(4-chloro-1-methyl-3-(methylsulfonamido)-1H-indazol-7-yl)-5-(dimethylamino)pyridin-2-yl)-2-(3,5-difluorophenyl)ethyl)-2-((3bS,4aR)-3-(difluoromethyl)-5,5-difluoro-3b,4,4a,5-tetrahydro-1H-cyclopropa[3,4]cyclopenta[1,2-c]pyrazol-1-yl)acetamide] | 86 | 34.2 | 
Cn1nc(NS(C)(=O)=O)c2c(Cl)ccc(-c3cc(N)c(Cl)nc3[C@H](Cc3cc(F)cc(F)c3)NC(=O)Cn3nc(C(F)F)c4c3C(F)(F)[C@@H]3C[C@H]43)c21 [Compound 53B, N—((S)-1-(5-amino-6-chloro-3-(4-chloro-1-methyl-3-(methylsulfonamido)-1H-indazol-7-yl)pyridin-2-yl)-2-(3,5-difluorophenyl)ethyl)-2-((3bS,4aR)-3-(difluoromethyl)-5,5-difluoro-3b,4,4a,5-tetrahydro-1H-cyclopropa[3,4]cyclopenta[1,2-c]pyrazol-1-yl)acetamide] | 91 | 15 | 
Cc1nc([C@H](Cc2cc(F)cc(F)c2)NC(=O)Cn2nc(C(F)F)c3c2C(F)(F)[C@@H]2C[C@H]32)c(-c2ccc(Cl)c3c(NS(C)(=O)=O)nn(C)c23)cc1N [Compound 47C, N—((S)-1-(5-amino-3-(4-chloro-1-methyl-3-(methylsulfonamido)-1H-indazol-7-yl)-6-methylpyridin-2-yl)-2-(3,5-difluorophenyl)ethyl)-2-((3bS,4aR)-3-(difluoromethyl)-5,5-difluoro-3b,4,4a,5-tetrahydro-1H-cyclopropa[3,4]cyclopenta[1,2-c]pyrazol-1-yl)acetamide] | 107 | 18.1 | 
CC(=O)Oc1ccc(-c2ccc(F)c(C(N)=O)c2)c([C@H](Cc2cc(F)cc(F)c2)NC(=O)Cn2nc(C(F)F)c3c2C(F)(F)CCC3(F)F)n1 [Compound 20B, (S)-5-(3-carbamoyl-4-fluorophenyl)-6-(1-(2-(3-(difluoromethyl)-4,4,7,7-tetrafluoro-4,5,6,7-tetrahydro-1H-indazol-1-yl)acetamido)-2-(3,5-difluorophenyl)ethyl)pyridin-2-yl acetate] |  |  | > 53.2
NC(=O)c1cc(-c2cc(N)cnc2[C@H](Cc2cc(F)cc(F)c2)NC(=O)Cn2nc(C(F)F)c3c2C(F)(F)CCC3(F)F)ccc1F [Compound 33, (S)-5-(5-amino-2-(1-(2-(3-(difluoromethyl)-4,4,7,7-tetrafluoro-4,5,6,7-tetrahydro-1H-indazol-1-yl)acetamido)-2-(3,5-difluorophenyl)ethyl)pyridin-3-yl)-2-fluorobenzamide] | 85 | 13.3 | 
Cn1nc(NS(C)(=O)=O)c2c(Cl)ccc(-c3ccc(NCCO)nc3[C@H](Cc3cc(F)cc(F)c3)NC(=O)Cn3nc(C(F)(F)F)c4c3C(F)(F)[C@@H]3C[C@H]43)c21 [Compound 56] | 95 | 24.3 | 
CC(=O)Nc1cnc([C@H](Cc2cc(F)cc(F)c2)NC(=O)Cn2nc(C(F)(F)F)c3c2C(F)(F)[C@@H]2C[C@H]32)c(-c2cccc3c(N(C(C)=O)S(C)(=O)=O)nn(C)c23)c1 [Compound 38B] | 98 | 40.8 | 
Cn1nc(NS(C)(=O)=O)c2cccc(-c3cc(N)cnc3[C@H](Cc3cc(F)cc(F)c3)NC(=O)Cn3nc(C(F)(F)F)c4c3C(F)(F)[C@@H]3C[C@H]43)c21 [Compound 35, N—((S)-1-(5-amino-3-(1-methyl-3-(methylsulfonamido)-1H-indazol-7-yl)pyridin-2-yl)-2-(3,5-difluorophenyl)ethyl)-2-((3bS,4aR)-5,5-difluoro-3-(trifluoromethyl)-3b,4,4a,5-tetrahydro-1H-cyclopropa[3,4]cyclopenta[1,2-c]pyrazol-1-yl)acetamide] | 93 | 23.9 | 
Cn1nc(NS(C)(=O)=O)c2cccc(-c3ccc(N4CC(C)(O)C4)nc3[C@H](Cc3cc(F)cc(F)c3)NC(=O)Cn3nc(C(F)F)c4c3C(F)(F)[C@@H]3C[C@H]43)c21 [Compound 42K, 2-((3bS,4aR)-3-(difluoromethyl)-5,5-difluoro-3b,4,4a,5-tetrahydro-1H-cyclopropa[3,4]cyclopenta[1,2-c]pyrazol-1-yl)-N—((S)-2-(3,5-difluorophenyl)-1-(6-(3-hydroxy-3-methylazetidin-1-yl)-3-(1-methyl-3-(methylsulfonamido)-1H-indazol-7-yl)pyridin-2-yl)ethyl)acetamide] | 92 | 18.9 | 
Cc1nc([C@H](Cc2cc(F)cc(F)c2)NC(=O)Cn2nc(C(F)F)c3c2C(F)(F)[C@@H]2C[C@H]32)c(-c2cccc3c(NS(C)(=O)=O)nn(C)c23)cc1N [Compound 44, N—((S)-1-(5-amino-6-methyl-3-(1-methyl-3-(methylsulfonamido)-1H-indazol-7-yl)pyridin-2-yl)-2-(3,5-difluorophenyl)ethyl)-2-((3bS,4aR)-3-(difluoromethyl)-5,5-difluoro-3b,4,4a,5-tetrahydro-1H-cyclopropa[3,4]cyclopenta[1,2-c]pyrazol-1-yl)acetamide] | 107 | 32 | 
Cc1c(-c2cc(N)cnc2[C@H](Cc2cc(F)cc(F)c2)NC(=O)Cn2nc(C(F)(F)F)c3c2C(F)(F)[C@@H]2C[C@H]32)ccc2n[nH]c(=O)n12 [Compound 34, N—((S)-1-(5-amino-3-(5-methyl-3-oxo-2,3-dihydro-[1,2,4]triazolo[4,3-a]pyridin-6-yl)pyridin-2-yl)-2-(3,5-difluorophenyl)ethyl)-2-((3bS,4aR)-5,5-difluoro-3-(trifluoromethyl)-3b,4,4a,5-tetrahydro-1H-cyclopropa[3,4]cyclopenta[1,2-c]pyrazol-1-yl)acetamide] | 89 | 22.4 | 
Cn1nc(NS(C)(=O)=O)c2cccc(-c3cc(N)c(C#N)nc3[C@H](Cc3cc(F)cc(F)c3)NC(=O)Cn3nc(C(F)(F)F)c4c3C(F)(F)[C@@H]3C[C@H]43)c21 [Compound 46F, N—((S)-1-(5-amino-6-cyano-3-(1-methyl-3-(methylsulfonamido)-1H-indazol-7-yl)pyridin-2-yl)-2-(3,5-difluorophenyl)ethyl)-2-((3bS,4aR)-5,5-difluoro-3-(trifluoromethyl)-3b,4,4a,5-tetrahydro-1H-cyclopropa[3,4]cyclopenta[1,2-c]pyrazol-1-yl)acetamide] | 109 | 12.5 | 
